Experimental data as given in publication PMC5473904, “Epigenetic and antitumor effects of platinum(IV)-octanoato conjugates” (Scientific Reports, 2017).

How the values were obtained:
[1] = test system: HCT-116 human colorectal carcinoma cells; assay: MTT cytotoxicity, 72 h; assay type: cell-based; settings: MTT, 72 h, platinum complexes and decitabine
Protocol: (§1) Cytotoxic activity of the compounds tested in the present work was screened on the panel of malignant and nonmalignant cell lines using the colorimetric MTT assay and 72 h of drug incubation period.
(§2) Cell death was evaluated using a system based on the tetrazolium compound MTT [3-(4,5-dimethyl-2-thiazolyl)-2,5-diphenyl-2H-tetrazolium bromide]. The cells were seeded in 96-well tissue culture plates at a density of 10^4 A2780cisR, LNCaP, HSF cells/well, 3 × 10^3 CHO-K1 or 4 × 10^3 MCF7, HCT-116 and MRC5 pd30 cells/well in 100 μL of medium. After overnight incubation (16 h), the cells were treated with the compounds in a final volume of 200 μL/well. After additional 72 h, 10 μL of a freshly diluted MTT solution (2.5 mg mL^−1) was added to each well, and the plate was incubated at 37 °C in a humidified 5% CO2 atmosphere for 4 h. At the end of the incubation period, the medium was removed, and the formazan product was dissolved in 100 μL of DMSO. The cell viability was evaluated by measurement of the absorbance at 570 nm, using an Absorbance Reader SUNRISE TECAN SCHOELLER. IC50 values were calculated from curves constructed by plotting cell survival (%) versus drug concentration (μM). All experiments were made in triplicate. The reading values were converted to the percentage of control (% cell survival). Cytotoxic effects were expressed as IC50.

[2] = test system: DNA methylation in HCT-116 cells; assay: DNA methylation analysis (Imprint methylated DNA quantification kit); assay type: cell-based, human; settings: HCT-116, 1 µM
Protocol: Human colon adenocarcinoma cells HCT-116 were chosen as the model cellular system suitable for DNA methylation analysis because: (i) this human colorectal cancer cell line has been used as a prototypic model for analyses of the genetic basis of cancer, and the role of epigenetic changes in tumorigenesis; (ii) they have a propensity to both global DNA hypomethylation and to silence genes through promoter focal hypermethylation, [21]. HCT-116 cells were treated with the compounds at the concentrations indicated in Fig. 4A for 24 or 72 h and DNA was isolated for the complete methylation analysis as described in the experimental section. Decitabine (5-aza-2′-deoxycytidine), a hypomethylating agent which hypomethylates DNA by inhibiting DNMT, was used in these experiments as a […]. The IC50 values found for this agent in HCT-116 cells (the drug-treatment period was 72 h) was (7.5 ± 0.3) µM (Table 1).
Figure 4 Analysis of DNA methylation. (A) DNA was isolated from HCT-116 cells after the exposure to the agents at the concentrations indicated in the graph for 24 or 72 h. The levels of DNA methylation in the control was taken as 100%. The bars represent mean values from three independent experiments each performed in octuplicate. The error bars are the SDs. (B) DNMT activity in colon carcinoma cells HCT-116 treated for 24 h with the compounds tested in the present work. The DNMT activity in the control, untreated cells was taken as 100%. Error bars are the SDs and the stars at the top of bars denote a significant difference from the control with (*p < 0.05; **p < […]), calculated using […] student’s t-test. The bars represent mean values from three independent experiments, each performed in quadruplicate.
Human colon carcinoma cells (HCT-116) were seeded at the density 1.5 × 10^6 cells/dish. […] The DNA content in each sample was determined by UV spectrophotometry. DNA (200 ng) from the samples was loaded to the Imprint methylated DNA quantification kit (Sigma-Aldrich, USA). The level of methylated DNA was proportional to the absorbance measured at 450 nm.

[3] = test system: A2780 human ovarian carcinoma cells; assay: MTT cytotoxicity, 72 h; assay type: cell-based; settings: MTT, 72 h, platinum complexes
[4] = test system: A2780cisR human ovarian carcinoma cells; assay: MTT cytotoxicity, 72 h; assay type: cell-based
Protocol: as §1, §2

[5] = test system: CHO-K1 Chinese hamster ovary cells; assay: MTT cytotoxicity, 72 h; assay type: cell-based; settings: platinum complexes
Protocol: as §1, §2

[6] = test system: HSF human primary skin fibroblasts; assay: MTT cytotoxicity, 72 h; assay type: cell-based; settings: platinum complexes
Protocol: as §1, §2

[7] = test system: LNCaP human prostate adenocarcinoma cells; assay: MTT cytotoxicity, 72 h; assay type: cell-based; settings: platinum complexes
Protocol: as §1, §2

[8] = test system: MCF-7 human breast cancer cells; assay: MTT cytotoxicity, 72 h; assay type: cell-based; settings: platinum complexes
Protocol: as §1, §2

[9] = test system: MRC-5 (PD30) human fetal lung fibroblasts; assay: MTT cytotoxicity, 72 h; assay type: cell-based; settings: platinum complexes
Protocol: as §1, §2

PNT1a = assay: MTT cytotoxicity, 72 h; assay type: cell-based; settings: platinum complexes
A2780 cells = assay: Cellular platinum accumulation/distribution by ICP-MS; assay type: cell-based, human; settings: 0.35 µM
Protocol: (§3) Cellular concentrations of platinum were determined by inductively coupled plasma mass spectrometry (ICP-MS) after 24 h of exposure to the complexes at the concentration of 0.35 µM.
(§4) Cellular uptake studies were also carried out to measure the accumulation of platinum species in cytosol and nucleus. […] The platinum levels in each pool were measured by ICP-MS. The extent of accumulation of both OA conjugated Pt(IV) prodrugs into the cytosol and nucleus fractions was markedly higher than that of cisplatin or Pt(IV)diAc.
(§5) The cells were seeded in 150 cm^2 culture flasks at a density 1 × 10^7 cells/flask (67 000 cells/cm^2). After 48-h incubation, the cells were treated with the compounds (0.35 μM) for 24 h. The attached cells were washed twice with PBS (4 °C). Seventy-five percent of cells were used for analysis of platinum bound to DNA, remaining 25% were used for estimations of cellular accumulation of platinum. Cell pellets were digested by a high-pressure microwave digestion system (MARS5, CEM) with HCl to give a fully homogenized solution, and final platinum content was determined by ICP-MS. The analysis with the aid of ICP-MS was performed using Agilent 7500 (Agilent, Japan) or Thermo Optek X Series.
(§6) A2780 cells were seeded in 100 mm tissue culture dishes (3 × 10^6 cells) and grown for 48 h to 80–90% confluence. Cells were harvested after 24 h of treatment. Concretely, the dishes were washed two times with ice-cold PBS and the cells scraped into tubes and centrifuged for 10 min at 0 °C (200 g). The pellets were resuspended in the lysis buffer [Tris·HCl (10 mM, pH 8.0), KCl (60 mM), EDTA (1.2 mM), DTT (1 mM), phenylmethanesulfonyl fluoride (PMSF, 0.1 mM), NP-40 (0.04%)] for 10 min on ice and centrifuged for 4 min at 0 °C (800 g). Cytosolic fraction was separated for platinum ICP-MS analysis, and protein concentration was determined by Bradford assay. The pellets were rinsed with the above lysis buffer without PMSF and NP-40 and centrifuged for another 4 min at 0 °C (300 g). The pellets were resuspended in 50 µL nuclear extraction buffer [Tris·HCl (20 mM, pH 8.0), NaCl (420 mM), MgCl2 (0.7 mM), EDTA (0.25 mM), glycerol (25%)] and incubated for 30 min at 4 °C, continuously mixed on end-over-end roller, and then centrifuged for 15 min at 0 °C (13000 g). Protein concentration in nuclear extracts was determined by the Bradford assay, and stored at −80 °C until analysis.

HCT-116 cells [10] = assay: as above; assay type: cell-based, human; settings: HCT-116, 24 h exposure, 0.35 µM
Protocol: as §3, §4, §5, §6

DNA from A2780 cells = assay: Platinum content on DNA isolated from treated cells (ICP-MS); assay type: cell-based, human; settings: A2780, 24 h, 0.35 µM
Protocol: (§7) As for antitumor cisplatin and its direct derivatives, DNA is believed to be the target also for Pt(IV) prodrugs examined in the present work.
(§8) The cells were seeded in 150 cm^2 culture flasks at a density 1 × 10^7 cells/flask (67 000 cells/cm^2). After 48-h incubation, the cells were treated with the compounds (0.35 μM) for 24 h. The attached cells were washed twice with PBS (4 °C). As mentioned in the preceding paragraph, 75% of cells were used for analysis of platinum bound to DNA, remaining 25% were used for estimations of cellular accumulation of platinum. Cells were then lysed in DNAzol (DNAzol® genomic DNA isolation reagent, MRC) supplemented with RNase A (100 μg mL^−1). The genomic DNA was precipitated from the lysate with ethanol, dried and resuspended in water. The DNA content in each sample was determined by UV spectrophotometry. The DNA samples were digested in the presence of hydrochloric acid (11 M) using high-pressure microwave mineralization system (MARS5, CEM). The platinum content was determined by ICP-MS. Experiments were performed in triplicate and the values are the means ± SD.

DNA from HCT-116 cells = assay: as above; assay type: cell-based, human; settings: HCT-116, 24 h, 0.35 µM
Protocol: as §7, §8

HCT-116 cells [11] = assay: Cellular platinum accumulation/distribution by ICP-MS; assay type: cell-based, human; settings: HCT-116, 24 h, 0.35 µM
[12] = set-up: method as in PMID 25888926; settings: valproato complexes; cited from earlier work
[13] = test system: Lewis lung carcinoma (LLC); assay: In vivo antitumor activity in Lewis lung carcinoma; settings: LLC in C57BL mice; for Average tumor weight (mean ± SD): 20 mg kg^−1 daily orally day 7–14, day 15; for Inhibition of tumor growth: 20 mg kg^−1 daily orally day 7–14, day 15, referred to control animals
Protocol: Xenograft LLC tumors were grown in C57BL mice that were subsequently treated with […] of either Pt(IV) complex. Pt(IV) prodrugs were administered by oral gavage by taking advantage of their excellent stability, enabling in vivo oral formulation making platinum therapy safer lessening side effects and partially overcoming resistance to platinum(II) drugs, [35]. The schedule of Pt(IV) prodrug administration in vivo was initially determined by assessing the total dose that could be injected without undue toxicity in nontumor-bearing C57BL mice. From day 7 after tumor inoculation, when tumors became visible, tumor-bearing mice received daily doses of the Pt(IV) derivatives (20 mg kg^−1, by oral gavage).
The LLC cell line was purchased from ECACC, United Kingdom. The LLC cell line was maintained in DMEM (Euroclone) supplemented with 10% heat-inactivated fetal bovine serum (FBS; Euroclone), 10 mM L-glutamine, 100 U mL^−1 penicillin, and 100 μg mL^−1 streptomycin in a 5% CO2 air incubator at 37 °C. The LLC was implanted intramuscularly (im) as a 2 × 10^6 cell inoculum into the right hind leg of 8-week old male and female C57BL mice (24 ± 3 g body weight). […] At day 15, animals were sacrificed, the legs were amputated at the proximal end of the femur, and the inhibition of tumor growth was determined according to the difference in weight of the tumor-bearing leg, and the healthy leg of the animals expressed as a percentage referred to the control animals. Body weight was measured every two days and was taken as a parameter for systemic toxicity. All the values are the means ± SD of not less than three measurements.

[14] = rough estimate from Tables 2 and 3

Nc1ncn([C@H]2C[C@H](O)[C@@H](CO)O2)c(=O)n1 [Decitabine, 5-aza-2′-deoxycytidine, reference compound]
IC50 ([1]; Homo sapiens, HCT-116): 7500 ± 300 nM
Change of DNA methylation [2]: considerably lowered level of DNA methylation

CCCCCCCC(=O)[O][Pt]([NH2])([NH2])([Cl])([Cl])[O]C(C)=O [Pt(IV)AcOA, cis, cis, trans-[Pt(IV)(NH3)2Cl2AcOA]]
IC50 [3]: 350 ± 50 nM
RF, resistance factor ([4]; IC50 (resistant, A2780cisR)/IC50 (sensitive, A2780)): 1.1
IC50 ([4]; MTT, 72 h, platinum complexes): 370 ± 60 nM
IC50 [5]: 1100 ± 200 nM
IC50 [1]: 930 ± 20 nM
IC50 [6]: 957 ± 19 nM
IC50 [7]: 270 ± 100 nM
IC50 [8]: 500 ± 40 nM
IC50 [9]: 409 ± 215 nM
IC50 (PNT1a): 150 ± 3 nM
Platinum in cytosol (A2780 cells; A2780, 24 h): 28 ± 4 pg Pt/µg protein
Platinum in nucleus (A2780 cells; A2780, 24 h): 27 ± 4 pg Pt/µg protein
Total cellular platinum accumulation (A2780 cells; A2780, 24 h exposure): 4.0 ± 0.9 ng Pt/10^6 cells
Total cellular platinum accumulation (HCT-116 cells [10]): 6.0 ± 0.9 ng Pt/10^6 cells
Platinum content on DNA (DNA from A2780 cells): 8.0 ± 1.4 pg Pt/µg DNA
Platinum on DNA, % from the total intracellular Pt amount (DNA from A2780 cells; [14]): 5.0%
Platinum content on DNA (DNA from HCT-116 cells): 19.8 ± 3.6 pg Pt/µg DNA
Platinum on DNA, % from the total intracellular Pt amount (DNA from HCT-116 cells; [14]): 4.8%
Platinum in cytosol (HCT-116 cells [11]): 48 ± 2 pg Pt/µg protein
Platinum in nucleus (HCT-116 cells [11]): 55 ± 7 pg Pt/µg protein

CCCC(CCC)C(=O)[O][Pt]([NH2])([NH2])([Cl])([Cl])[O]C(C)=O [Pt(IV)AcVPA, reference compound]
logP [12]: 0.17

CCCC(=O)[O][Pt]([NH2])([NH2])([Cl])([Cl])[O]C(=O)CCC [Pt(IV)diBA, cis, cis, trans-[Pt(IV)(NH3)2Cl2(BA)2]]
Average tumor weight (mean ± SD) [13]: 0.109 ± 0.05 g
Inhibition of tumor growth [13]: 80%

CCCCCC(=O)[O][Pt]([NH2])([NH2])([Cl])([Cl])[O]C(=O)CCCCC [Pt(IV)diHA, cis, cis, trans-[Pt(IV)(NH3)2Cl2(HA)2]]
Average tumor weight (mean ± SD) [13]: 0.088 ± 0.06 g
Inhibition of tumor growth [13]: 84%
